These results are taken from US20220395553A1, “CXCR4 ANTAGONIST PEPTIDES” (COHBAR, INC., priority 2019, published 2022).

SMILES strings stand for the structures.

Data set [1] relates to U937 cells. Briefly: CXCL12 mediated cell migration, U937 cells. It counts as cell-based, human. Conditions: Homo sapiens, U-937, 4 h, read-out: Percent Inhibition of CXCL12 Mediated Migration. On the procedure:
Peptides were initially prepared as 1 mM stock in H2O and tested at a final concentration of 1 μM. […] U937 cells were resuspended in serum free media containing 0.5% bovine serum albumin (RPMI+GlutaMax (Gibco/Thermo Fisher Scientific, Gaithersburg, Md.)) at density of 5×10^6 cells/ml. […] Following the 4 hour incubation period the filter inserts were carefully removed and the migration of cells across the filter into the bottom chamber (receiver wells) was determined by measuring ATP levels using Cell TiterGlo 2.0, according to manufacturer's instructions (Promega, Madison, Wis.); luminescence measured using a Cytation 3 plate reader (BioTek, Winooski, Vt.).

The test system of data set [2] is Jurkat cells. Briefly: CXCL12 mediated cell migration, Jurkat cells. It is filed as cell-based, human. Conditions: Homo sapiens, Jurkat, 1 h, read-out: Percent Inhibition of CXCL12 Mediated Migration (1.1 μM Test Article). The procedure, abridged:
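Jurkat cells in serum-free RPMI with 0.5% BSA, 250,000 per upper chamber of a 5 μm Transwell, with peptides at 1.1 μM final. Migration toward CXCL12 ran 1 h at 37 °C in 5% CO2. Cells reaching the lower chamber quantified by ATP luminescence (CellTiter-Glo 2.0).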

Data set [3] relates to CXCR4/CXCL12 induced p-MEK. Briefly: CXCR4/CXCL12 induced p-MEK in Jurkat cells (ELISA). It is filed as cell-based, human. Conditions: Homo sapiens, Jurkat, 5 min. In a few lines:
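Jurkat cells in RPMI+GlutaMax containing 10% FBS and 1% penicillin/streptomycin, fresh or conditioned, were resuspended at 2×10^6 cells/ml and […] aliquots placed in tubes. After a 5 min stimulation they were pelleted, rinsed with HBSS and lysed with PMSF and protease/phosphatase inhibitors. Phospho-MEK1 (Ser217/221) was quantified by sandwich ELISA with absorbance read at 450 nm.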
In general terms: In an ELISA, binding on a coated surface is turned into a signal by an enzyme label.

Data set [4] can be described thus: Cell viability, PrestoBlue assay. It counts as cell-based. Particulars: human; read-out: Cell viability, % of background corrected DMSO control value. How it is done: The effect of the peptides on cell viability can be assessed in cultured cells using suitable assay of viability such as the PrestoBlue® assay (Thermo Fisher Scientific, Waltham, Mass.). Peptides were initially prepared as 10 mM stock in DMSO and tested at a final concentration of 10 μM (0.1% DMSO). […] PrestoBlue Assay Reagent was purchased from Thermo Fisher Scientific. A172 human brain glioblastoma cell line was purchased from American Type Culture Collection (Manassas, Va.). A172 cells were grown in DMEM supplemented with 10% FBS with 100 IU/ml penicillin and 100 μg/ml streptomycin. Cultures were maintained at 37° C. in a humidified atmosphere of 5% CO2/95% air. A172 cells were seeded at 8,000 cells per well on 96-well plates. […] Cell viability was determined using a PrestoBlue Assay reagent […] according to the manufacturer's instructions. Absorption for each sample well on the plate was measured using a Cytation 3 plate reader at 560 nm and 590 nm (BioTek, Winooski, Vt.). Activity was calculated relative to 0.1% DMSO untreated control. Treatment with 0.1% DMSO alone was used as the cell viability activity control. The relative standard deviation of the DMSO control was <5%.

Data set [5] relates to SH-SY5Y Neuroblastoma Cells. Briefly: ATP levels (CellTiter-Glo). It counts as cell-based, human. Particulars: staurosporine 1 μM. How it is done:
The effect of the peptides on cellular metabolism can be assessed using an assay of ATP levels in cultured cells such as human neuroblastoma cells. Peptides were initially prepared as 10 mM stock in DMSO and used at a final concentration of 10 μM (0.1% DMSO). […] CellTiter-Glo® Assay kit was purchased from Promega. SH-SY5Y human bone marrow neuroblastoma cell line was purchased from American Type Culture Collection (Manassas, Va.) and licensed from Memorial Sloan-Kettering Cancer Center (New York, N.Y.). SH-SY5Y cells were grown in DMEM/F12 medium supplemented with 10% FBS with 100 IU/ml penicillin and 100 μg/ml streptomycin. Cultures were maintained at 37° C. in a humidified atmosphere of 5% CO2/95% air. SH-SY5Y cells were seeded at 30,000 cells per well on 96-well plates. […] ATP levels were determined using a CellTiter-Glo Assay kit (Promega) according to the manufacturer's instructions. Luminescence for each sample well on the plate was measured using a Cytation 3 plate reader (BioTek, Winooski, Vt.). Activity was calculated relative to 0.1% DMSO treated control. The relative standard deviation of the result for the 0.1% DMSO treated control was <5%.

Data set [6] concerns Rat H-4-II-E Cells. Briefly: TBHP-induced reactive oxygen species (DCFDA). Conditions: sulforaphane 10 uM. It is filed as cell-based. On the procedure:
The protective or synergistic effect of the peptides on cellular levels of reactive oxygen species (ROS) induced by oxidative stress can be assessed using an assay of ROS in cultured cells exposed to a suitable oxidative stress. Peptides were initially prepared as 10 mM stock in DMSO and tested at a final concentration of 10 μM (0.1% DMSO). […] TBHP was used at final concentration of […]. Sulforaphane was used at a final concentration of 10 uM as a protective antioxidant control against TBHP induced ROS production. DCFDA Cellular ROS Detection Assay kit was purchased from […]. H-4-II-E rat liver hepatoma cell line was purchased from American Type Culture Collection (Manassas, Va.). H-4-II-E cells were grown in DMEM supplemented with 10% FBS with 100 IU/ml penicillin and 100 μg/ml streptomycin. Cultures were maintained at 37° C. in a humidified atmosphere of 5% CO2/95% air. H-4-II-E cells were seeded at 15,000-20,000 cells per well on 96-well plates. The next day cells were incubated with test peptides at 10 μM in 0.1% DMSO or sulforaphane at 10 uM and maintained at 37° C. in a humidified atmosphere of 5% CO2/95% air for 18-20 hours. After 18-20 hours of incubation the cells were loaded with DCFDA for 45 min. TBHP at 100 μM was then added to the appropriate wells for 1 hour. ROS activity was determined using a DCFDA Cellular ROS Detection Assay kit (Abcam) according to the manufacturer's instructions. Fluorescence in each sample well on the plate was measured using a Cytation 3 plate reader at Ex/Em=485/535 nm (BioTek, Winooski, Vt.). Activity was calculated relative to TBHP control. […] Activity was calculated relative to THBP treated control.

With `c1cc(CN2CCCNCCNCCCNCC2)ccc1CN1CCCNCCNCCCNCC1` [AMD3100, reference compound], the inhibition at 30 µM in data set [1] worked out at 99%. Further, in data set [2], the inhibition at 1.1 µM worked out at 91%. Also, in data set [3] (read-out: Percent Inhibition of CXCR4/CXCL12 Induced p-MEK (100 nM Test Article)), the inhibition at 0.1 µM was 79%. In data set [3] (read-out: Percent Inhibition of CXCR4/CXCL12 Induced p-MEK (1 μM Test Article)), the inhibition at 1 µM came out at 91%.

Broadly, the viability is the share of living cells, or the viability signal relative to a control. For `CN[C@@H]1C[C@H]2O[C@@](C)([C@@H]1OC)n1c3ccccc3c3c4c(c5c6ccccc6n2c5c31)C(=O)NC4` [staurosporine, Staurosporine, reference compound], the viability at 1 µM in data set [4] is under 75%. Moreover, the “ATP levels, % of 0.1% DMSO treated control value” in data set [5] was under 5%.

As to `C[S+]([O-])CCCCN=C=S` (stereo not shown) [sulphorophane, Sulforaphane, reference compound], the “ROS levels, % of the THBP-induced ROS level” value in data set [6] was found to be 45.5%.
